Reference: US20240228488A1 (TAKEDA PHARMACEUTICAL COMPANY LIMITED, priority 2021, published 2024)

Assays:
[1] = target: T1, plasma kallikrein (Homo sapiens, UniProt P03952); experiment: Neat human plasma assay, FXIIa contact pathway-activated, PFR-AMC substrate; format: biochemical; conditions: citrated human plasma 78% final, 10 nM human FXIIa, 100 μM PFR-AMC; read-out: Human Plasma Assay: IC90
T1 construct: from tissue
In short: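 Compound inhibition of plasma kallikrein measured as PFR-AMC (100 μM) cleavage rate over 5 min at room temperature in 78% citrated human plasma activated with 10 nM FXIIa (Tris pH 7.5 buffer). IC50/IC90 from 4-parameter fit of rate versus inhibitor concentration.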

[2] = target: human activated kallikrein enzyme (Homo sapiens, UniProt P03952); experiment: Plasma kallikrein inhibition, fluorogenic PFR-AMC substrate, 500 pM activated kallikrein format; format: biochemical; conditions: 500 pM activated kallikrein, 300 uM PFR-AMC, 30 min preincubation, 10 min reaction; read-out: Primary Dose Response Assay: Average EC50
Chain of human activated kallikrein enzyme (P03952 391-638 limits assumed): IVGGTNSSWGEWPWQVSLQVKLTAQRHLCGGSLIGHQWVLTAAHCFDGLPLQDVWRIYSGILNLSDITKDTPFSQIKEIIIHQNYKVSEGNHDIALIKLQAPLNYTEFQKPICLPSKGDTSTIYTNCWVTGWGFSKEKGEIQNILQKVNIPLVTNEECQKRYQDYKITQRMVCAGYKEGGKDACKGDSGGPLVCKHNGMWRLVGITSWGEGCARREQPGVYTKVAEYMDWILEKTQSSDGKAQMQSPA
Chain of human activated kallikrein enzyme (P03952 20-390 partner limits assumed): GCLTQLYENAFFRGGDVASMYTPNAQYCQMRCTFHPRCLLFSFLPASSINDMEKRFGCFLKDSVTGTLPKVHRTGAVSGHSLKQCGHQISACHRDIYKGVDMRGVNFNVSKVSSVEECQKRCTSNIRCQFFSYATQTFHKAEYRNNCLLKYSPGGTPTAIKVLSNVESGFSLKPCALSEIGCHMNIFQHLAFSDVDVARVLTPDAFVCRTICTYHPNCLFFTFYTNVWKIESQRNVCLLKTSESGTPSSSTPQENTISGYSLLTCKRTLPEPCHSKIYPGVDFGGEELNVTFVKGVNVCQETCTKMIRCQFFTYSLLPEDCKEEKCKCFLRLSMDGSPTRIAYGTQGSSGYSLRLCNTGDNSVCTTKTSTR
In short: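 High-enzyme format of the fluorogenic peptide assay, with EC50 taken from AMC signal: 500 pM activated kallikrein, 300 uM Pro-Phe-Arg-AMC, 30 min compound preincubation and 10 min reaction, all at room temperature, pH 7.5.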

T1 sequence (P03952 391-638 limits assumed): as the sequence (P03952 391-638 limits assumed) above
T1 sequence (P03952 20-390 partner limits assumed): as the sequence (P03952 20-390 partner limits assumed) above

Row | SMILES | IC90 [1] [nM] | EC50 [2] [nM]
1 | Cc1ccnc([C@H]2C[C@@H]2C(=O)Nc2ncc(C(F)(F)F)c(OCc3cn4cc(C5CC5)cc(N5CC(=O)N(C)C5=O)c4n3)n2)n1 (racemic) [Example 628, rac-(1S*,2S*)—N-(4-((6-cyclopropyl-8-(3-methyl-2,4-dioxoimidazolidin-1-yl)imidazo[1,2-a]pyridin-2-yl)methoxy)-5-(trifluoromethyl)pyrimidin-2-yl)-2-(4-methylpyrimidin-2-yl)cyclopropane-1-carboxamide] | 400 to 1500 | < 1
2 | O=C(Nc1cc(NCc2cn3cc(C4CC4)cc(COCCO)c3n2)ccn1)[C@H]1C[C@@H]1c1cccc(Cl)c1 [Example 288, (1S,2S)-2-(3-chlorophenyl)-N-(4-(((6-cyclopropyl-8-((2-hydroxyethoxy)methyl)imidazo[1,2-a]pyridin-2-yl)methyl)amino)pyridin-2-yl)cyclopropane-1-carboxamide] | 1500 to 10000 | < 1
3 | CC(C)c1ccc2nc(CNc3ccnc(NC(=O)[C@H]4C[C@@H]4c4cccc(Cl)c4)c3)cn2c1 [Example 123, (1S,2S)-2-(3-chlorophenyl)-N-(4-(((6-isopropylimidazo[1,2-a]pyridin-2-yl)methyl)amino)pyridin-2-yl)cyclopropane-1-carboxamide] | 10000 to 48000 | < 1
4 | Cc1cccc([C@H]2C[C@@H]2C(=O)Nc2cc(NCc3cn4cc(C5CC5)cc(N5CC(=O)N(C)C5=O)c4n3)ncn2)n1 (racemic) [Example 500, rac-(1S*,2S*)-N-(6-(((6-cyclopropyl-8-(3-methyl-2,4-dioxoimidazolidin-1-yl)imidazo[1,2-a]pyridin-2-yl)methyl)amino)pyrimidin-4-yl)-2-(6-methylpyridin-2-yl)cyclopropane-1-carboxamide] | 400 to 1500 | < 1
5 | CNCCc1cc(C2CC2)cn2cc(CNc3ccnc(NC(=O)[C@H]4C[C@@H]4c4cccc(Cl)c4)c3)nc12 [Example 607, (1S,2S)-2-(3-chlorophenyl)-N-(4-(((6-cyclopropyl-8-(2-(methylamino)ethyl)imidazo[1,2-a]pyridin-2-yl)methyl)amino)pyridin-2-yl)cyclopropane-1-carboxamide] | < 400 | < 1
6 | CN1CCN(c2cc(C3CC3)cn3cc(CNc4ccnc(NC(=O)[C@H]5C[C@@H]5c5cccc(Cl)c5)c4)nc23)C(=O)C1 [Example 127, (1S,2S)-2-(3-chlorophenyl)-N-(4-(((6-cyclopropyl-8-(4-methyl-2-oxopiperazin-1-yl)imidazo[1,2-a]pyridin-2-yl)methyl)amino)pyridin-2-yl)cyclopropane-1-carboxamide] | < 400 | < 1
7 | Cc1ccnc([C@H]2C[C@@H]2C(=O)Nc2cc(NCc3cn4cc(C5CC5)cc(N5CC(=O)N(C)C5=O)c4n3)nc(C)n2)n1 [Example 365, (1S,2S)-N-(6-(((6-cyclopropyl-8-(3-methyl-2,4-dioxoimidazolidin-1-yl)imidazo[1,2-a]pyridin-2-yl)methyl)amino)-2-methylpyrimidin-4-yl)-2-(4-methylpyrimidin-2-yl)cyclopropane-1-carboxamide] | < 400 | < 1
8 | Cc1ccnc([C@H]2C[C@@H]2C(=O)Nc2cc(NCc3cn4cc(C5CC5)cc(N5CCCC5=O)c4n3)ncn2)n1 (racemic) [Example 389, rac-(1S*,2S*)-N-(6-(((6-cyclopropyl-8-(2-oxopyrrolidin-1-yl)imidazo[1,2-a]pyridin-2-yl)methyl)amino)pyrimidin-4-yl)-2-(4-methylpyrimidin-2-yl)cyclopropane-1-carboxamide] | 400 to 1500 | < 1
9 | Cc1ccnc([C@H]2C[C@@H]2C(=O)Nc2cc(NCc3cn4cc(C5CC5)cc(-n5[nH]c(=O)n(C)c5=O)c4n3)ncn2)n1 (racemic) [Example 386, rac-(1S*,2S*)-N-(6-(((6-cyclopropyl-8-(4-methyl-3,5-dioxo-1,2,4-triazolidin-1-yl)imidazo[1,2-a]pyridin-2-yl)methyl)amino)pyrimidin-4-yl)-2-(4-methylpyrimidin-2-yl)cyclopropane-1-carboxamide] | 1500 to 10000 | 1 to 10
10 | O=C(Nc1cc(NCc2cn3cc(C4CC4)ccc3n2)ccn1)[C@H]1C[C@@H]1c1cccc(Cl)c1 (single isomer, unassigned) [Example 117] | 1500 to 10000 | < 1
11 | NCc1cc(C2CC2)cn2cc(CNc3ccnc(NC(=O)[C@H]4C[C@@H]4c4cccc(Cl)c4)c3)nc12 [Example 293, (1S,2S)—N-(4-(((8-(aminomethyl)-6-cyclopropylimidazo[1,2-a]pyridin-2-yl)methyl)amino)pyridin-2-yl)-2-(3-chlorophenyl)cyclopropane-1-carboxamide] | 1500 to 10000 | < 1
12 | CN1CCN(c2cc(C3CC3)cn3cc(CNc4cc(NC(=O)[C@H]5C[C@@H]5c5cccc(Cl)c5)nc(O)n4)nc23)CC1 [Example 285, (1S,2S)-2-(3-chlorophenyl)-N-(6-(((6-cyclopropyl-8-(4-methylpiperazin-1-yl)imidazo[1,2-a]pyridin-2-yl)methyl)amino)-2-hydroxypyrimidin-4-yl)cyclopropane-1-carboxamide] | < 400 | < 1

Continued, values first:

Row | IC90 [1] [nM] | EC50 [2] [nM] | SMILES
13 | < 400 | < 1 | Cc1cc(NC(=O)[C@H]2C[C@@H]2c2nccc(C)n2)cc(NCc2cn3cc(C4CC4)cc(N4CC(=O)N(C)C4=O)c3n2)n1 [Example I-639, (1S,2S)—N-(2-(((6-cyclopropyl-8-(3-methyl-2,4-dioxoimidazolidin-1-yl)imidazo[1,2-a]pyridin-2-yl)methyl)amino)-6-methylpyridin-4-yl)-2-(4-methylpyrimidin-2-yl)cyclopropane-1-carboxamide]
14 | 400 to 1500 | < 1 | CN1CCN(c2cc(C3CC3)cn3cc(CNc4cc(NC(=O)[C@H]5C[C@@H]5c5cc(Cl)ccn5)ncn4)nc23)C(=O)C1 (racemic) [Example I-195, rac-(1S*,2S*)-2-(4-chloropyridin-2-yl)-N-(6-(((6-cyclopropyl-8-(4-methyl-2-oxopiperazin-1-yl)imidazo[1,2-a]pyridin-2-yl)methyl)amino)pyrimidin-4-yl)cyclopropane-1-carboxamide]
15 | 400 to 1500 | < 1 | CN1C(=O)CN(c2cc(C3CC3)cn3cc(CNc4cc(NC(=O)[C@H]5C[C@@H]5c5cccc(Cl)c5)ncn4)nc23)C1=O [Example I-169, (1S,2S)-2-(3-chlorophenyl)-N-(6-(((6-cyclopropyl-8-(3-methyl-2,4-dioxoimidazolidin-1-yl)imidazo[1,2-a]pyridin-2-yl)methyl)amino)pyrimidin-4-yl)cyclopropane-1-carboxamide]
16 | < 400 | < 1 | COc1cnc(NC(=O)[C@H]2C[C@@H]2c2nccc(C)n2)nc1NCc1cn2cc(C3CC3)cc(N3CC(=O)N(C)C3=O)c2n1 (racemic) [Example I-244, rac-(1S*,2S*)-N-(4-(((6-cyclopropyl-8-(3-methyl-2,4-dioxoimidazolidin-1-yl)imidazo[1,2-a]pyridin-2-yl)methyl)amino)-5-methoxypyrimidin-2-yl)-2-(4-methylpyrimidin-2-yl)cyclopropane-1-carboxamide]
17 | 10000 to 48000 | < 1 | O=C(Nc1cc(NCc2cn3cc(C4CC4)ccc3n2)ccn1)[C@H]1C[C@@H]1c1cc(Cl)ccn1 (racemic) [Example I-268, rac-(1S*,2S*)-2-(4-chloropyridin-2-yl)-N-(4-(((6-cyclopropylimidazo[1,2-a]pyridin-2-yl)methyl)amino)pyridin-2-yl)cyclopropane-1-carboxamide]
18 | 400 to 1500 | < 1 | CN(C)C1CCN(c2cc(C3CC3)cn3cc(CNc4ccnc(NC(=O)[C@H]5C[C@@H]5c5cccc(Cl)c5)c4)nc23)C1 (stereo partly drawn) [Example I-25, (1S,2S)-2-(3-chlorophenyl)-N-(4-(((6-cyclopropyl-8-(3-(dimethylamino)pyrrolidin-1-yl)imidazo[1,2-a]pyridin-2-yl)methyl)amino)pyridin-2-yl)cyclopropane-1-carboxamide]
19 | 1500 to 10000 | 1 to 10 | O=C(Nc1cc(NCc2cn3cc(C4CC4)cc(N4CCN5CC(O)CC5C4)c3n2)ncn1)[C@H]1C[C@@H]1c1cccc(Cl)c1 (stereo partly drawn) [Example I-196, (1S,2S)-2-(3-chlorophenyl)-N-(6-(((6-cyclopropyl-8-(7-hydroxyhexahydropyrrolo[1,2-a]pyrazin-2(1H)-yl)imidazo[1,2-a]pyridin-2-yl)methyl)amino)pyrimidin-4-yl)cyclopropane-1-carboxamide]
20 | 400 to 1500 | < 1 | O=C(Nc1cc(NCc2cn3cc(C4CC4)cc(N4CCOC4=O)c3n2)ncn1)[C@H]1C[C@@H]1c1cc(Cl)ccn1 [Example I-172, (1S,2S)-2-(4-chloropyridin-2-yl)-N-(6-(((6-cyclopropyl-8-(2-oxooxazolidin-3-yl)imidazo[1,2-a]pyridin-2-yl)methyl)amino)pyrimidin-4-yl)cyclopropane-1-carboxamide]
21 | 1500 to 10000 | < 1 | O=C(Nc1cc(NCc2cn3cc(C4CC4)cc(N4CC5(C4)CN(C4CC4)C5)c3n2)ccn1)[C@H]1C[C@@H]1c1cccc(Cl)c1 [Example I-24, (1S,2S)-2-(3-chlorophenyl)-N-(4-(((6-cyclopropyl-8-(6-cyclopropyl-2,6-diazaspiro[3.3]heptan-2-yl)imidazo[1,2-a]pyridin-2-yl)methyl)amino)pyridin-2-yl)cyclopropane-1-carboxamide]
